Measured values: ChEMBL document CHEMBL1125178, “Electrophilic gamma-lactone kappa-opioid receptor probes. Analogues of 2'-hydroxy-2-tetrahydrofurfuryl-5,9-dimethyl-6,7-benzomorphan diastereomers” (J Med Chem, 1991)
pIC50: −log10 of the molar value.

Assays:
[1] = Displacement of [3H]bremazocine from opioid receptor of guinea pig membrane; design: species or system Cavia porcellus
[2] = target: Kappa-type opioid receptor (Cavia porcellus, UniProt P41144); assay: Displacement of [3H]bremazocine from opioid receptor kappa of guinea pig membrane.
Kappa-type opioid receptor, sequence (P41144 whole entry): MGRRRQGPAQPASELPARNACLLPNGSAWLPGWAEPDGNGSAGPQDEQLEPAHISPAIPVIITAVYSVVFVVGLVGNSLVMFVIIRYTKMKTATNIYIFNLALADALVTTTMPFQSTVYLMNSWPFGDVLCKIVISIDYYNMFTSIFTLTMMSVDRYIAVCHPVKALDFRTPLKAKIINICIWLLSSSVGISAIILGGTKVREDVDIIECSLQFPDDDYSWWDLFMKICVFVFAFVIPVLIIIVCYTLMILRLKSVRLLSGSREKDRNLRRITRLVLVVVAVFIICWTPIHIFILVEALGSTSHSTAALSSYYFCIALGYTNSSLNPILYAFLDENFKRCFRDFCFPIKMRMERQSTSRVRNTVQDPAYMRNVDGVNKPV

[3] = target: Opioid receptors; mu/kappa/delta (Homo sapiens, UniProt P41145+P41143+P35372); assay: Displacement of 0.5 nM [3H]bremazocine from opioid receptor sites in guinea pig membranes; type: cell membranes, Cavia porcellus; conditions: target entry is the homologue from another species

SMILES	pIC50 [1]	pIC50 [2]	IC50 [3]
C[C@H]1[C@H]2Cc3ccc(O)cc3[C@@]1(C)CCN2C[C@@H]1CCC(=O)O1	7.92	8.14	
C=C1C[C@@H](CN2CC[C@]3(C)c4cc(O)ccc4C[C@@H]2[C@@H]3C)OC1=O	6.42	6.40	
C[C@@H]1[C@@H]2Cc3ccc(O)cc3[C@]1(C)CCN2C[C@@H]1CCCO1			1000 nM
C=C1C[C@H](CN2CC[C@]3(C)c4cc(O)ccc4C[C@@H]2[C@@H]3C)OC1=O	< 5.52		
C[C@H]1[C@H]2Cc3ccc(O)cc3[C@@]1(C)CCN2C[C@H]1C=CC(=O)O1	7.05	7.13	
C[C@H]1[C@H]2Cc3ccc(O)cc3[C@]1(C)CCN2Cc1ccco1	8.17	8.24	
C=CCN1CC[C@]23c4c5ccc(O)c4O[C@H]2C(=O)CC[C@@]3(O)[C@H]1C5 [NALOXONE]	7.64		
C[C@H]1[C@H]2Cc3ccc(O)cc3[C@@]1(C)CCN2C[C@@H]1C=CC(=O)O1	8.13	8.27	
O=C1CC[C@@]2(O)[C@H]3Cc4ccc(O)c5c4[C@@]2(CCN3CC2CC2)[C@H]1O5 [NALTREXONE]	8.24		
C[C@H]1[C@H]2Cc3ccc(O)cc3[C@@]1(C)CCN2C[C@H]1CCC(=O)O1	6.21	6.40	
CC[C@@H]1[C@@H]2Cc3ccc(O)cc3[C@]1(CC)CCN2Cc1ccoc1	5.66		
CC[C@H]1[C@H]2Cc3ccc(O)cc3[C@@]1(CC)CCN2Cc1ccoc1	8.54	8.80	
C=C1C[C@@H](CN2CC[C@@]3(C)c4cc(O)ccc4C[C@H]2[C@H]3C)OC1=O			1300 nM
C[C@H]1[C@H]2Cc3ccc(O)cc3[C@@]1(C)CCN2C[C@H]1CCCO1	7.08	7.15	
C=C1C[C@H](CN2CC[C@@]3(C)c4cc(O)ccc4C[C@H]2[C@H]3C)OC1=O	5.74		
C[C@H]1[C@H]2Cc3ccc(O)cc3[C@@]1(C)CCN2C[C@@H]1CCCO1	8.64	8.77	
